Assay results taken from US7855228B2, “Antibiotics targeting MreB” (The Board of Trustees of the Leland Stamford Junior …, priority 2005, dated 2010).

Tests used:
E. coli JA221, JST975 = test: Cell shapes of A22-resistant mutant JA221 and parent JST975; format: cell-based; conditions: 10 μg/ml A22
Experimental: FIG. 9. Effects of A22 and mecillinam on cell shapes of the A22-resistant mutant JA221. Exponentially growing cells of the A22-resistant mutant strain JA221 and the parent strain JST975 were treated with 1 μg/ml mecillinam or 10 μg/ml A22 for 2 h at 37° C. Differential interference contrast microphotographs are shown.
After prolonged (9 days) incubation of the JST975 assay plates, several isolated colonies that grew up within the clear growth inhibitory zones were purified on L plates and their A22-sensitivity was examined.

GFP-MreB [1] = target: T1, GFP-MreB (Caulobacter vibrioides, UniProt A0A0H3C7V4); test: GFP-MreB localization; format: cell-based, Caulobacter crescentus
T1 construct: expressed in transfected cells; host or cells: Caulobacter crescentus CB15N derivative, xylose-inducible Pxyl:gfp-mreB
T1 sequence (A0A0H3C7V4 whole entry): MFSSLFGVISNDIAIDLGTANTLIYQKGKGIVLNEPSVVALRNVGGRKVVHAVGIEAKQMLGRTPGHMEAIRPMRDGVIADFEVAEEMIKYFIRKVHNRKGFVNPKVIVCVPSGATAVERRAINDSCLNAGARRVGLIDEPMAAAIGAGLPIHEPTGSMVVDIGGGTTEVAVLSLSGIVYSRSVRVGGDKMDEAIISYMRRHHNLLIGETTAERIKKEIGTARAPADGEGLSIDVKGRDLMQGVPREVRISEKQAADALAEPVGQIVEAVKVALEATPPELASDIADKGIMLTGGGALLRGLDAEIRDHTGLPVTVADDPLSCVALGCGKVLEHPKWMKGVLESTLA
Experimental: (§1) A22 Rapidly and Reversibly Delocalizes GFP-MreB. During the Caulobacter cell cycle, MreB forms a lengthwise spiral in swarmer cells and stalked cells. It then appears to condense into an increasingly tight ring positioned at the future site of cell division. When cytokinesis initiates, this ring is replaced by a lengthwise spiral, such that upon cell division each daughter cell inherits a fully expanded spiral. […] Since 10 μg/ml of A22 strongly delocalizes GFP-MreB and blocks cell division without completely inhibiting cell growth, we have chosen to focus most of our subsequent A22 studies on this concentration.
(§2) The onset of A22's effect on GFP-MreB is very rapid: within 1 min the GFP-MreB already delocalized (FIG. 4B). A22's effect on GFP-MreB is also rapidly reversible. Diluting the A22 concentration of cells treated with A22 for 1 hr by mounting them on pads lacking A22 leads to a full recovery of MreB localization within 1 min (FIG. 4C). GFP-MreB was monitored in the same cells before, during, and after A22 treatment by timelapse imaging cells in a flow chamber that allows A22 to be washed in and out (FIGS. 4D-4F). […] Cells generally retained a memory of the MreB structure present before A22 treatment (FIGS. […]). Cells with rings recovered rings, cells with spirals recovered spirals, and cells with partially compacted rings recovered partially compacted rings. These findings are consistent with MreB's localization being determined by extrinsic factors regulated by the cell cycle state, rather than an intrinsic MreB localization cycle.
(§3) We constructed a fusion of the most common A22-resistant mreB missense mutation (T158A) to GFP and asked if the cellular organization of this MreB mutant is maintained in 10 μg/ml of A22. This fusion was expressed in the corresponding A22-resistant strain, producing merodiploid cells containing both GFP-tagged and -untagged mutated mreB, but no wild-type mreB. […] Since this mutation in the MreB ATP binding pocket perturbs MreB dynamic localization, nucleotide hydrolysis may play a role in regulating MreB dynamics.
(§4) Microscopy and Timelapse Imaging. All experiments other than the A22 flow-cell analysis were performed by mounting the samples on 1% agarose pads as described, with the appropriate concentration of A22 added to the agarose. The rates of origin-distal locus segregation were determined by inducing PxyI:lacI:cfp expression with 0.03% xylose for 75 min, isolating swarmer cells, and growing the swarmer cells in M2G liquid medium for 50 min. After 50 min, 10 μg/ml of A22 was added to these liquid cultures, they were mounted onto 1% M2G agarose pads containing 10 μg/ml A22, and a phase and CFP fluorescence image was captured every 2 min for 60 min. The images were analyzed by previously described software to determine the average position and rate of movement of the observed foci.
(§5) The A22 flow-cell treatment timelapse images were performed on PxyI:gfp-mreB cells induced for 2 hr with 0.03% xylose. These cells were adhered to polylysine-coated cover slips. The cover slips were then adhered to microscope slides with two parallel strips of double-sided tape (3M), leaving a central channel. An excess of medium containing 0 or 10 μg/ml A22 was pipetted onto one opening of this channel and wicked through by placing a tissue (VWR) on the other end. Images were collected every 30 s.

GFP-MreB [2] = target: T2, GFP-MreB (Caulobacter vibrioides, UniProt A0A0H3C7V4, T167A); test: GFP-MreB localization; format: cell-based, Caulobacter crescentus; conditions: 10 μg/ml; A22-resistant strain
T2 construct: expressed in transfected cells; host or cells: Caulobacter crescentus CB15N derivative, xylose-inducible Pxyl:gfp-mreB
T2 sequence (A0A0H3C7V4 whole entry T167A): as the sequence (A0A0H3C7V4 whole entry) above, with T167A counted along it
Experimental: as §1, §2, §3, §4, §5

S. typhimurium = test: Induction of spherical cells; format: cell-based
From the text: (§6) A22 was effective against Gram-negative rod-shaped bacteria.

P. putida = test: Induction of spherical cells; format: cell-based
From the text: as §6

B. subtilis = test: Induction of spherical cells; format: cell-based
From the text: as §6

HoIB-GFP = HoIB-GFP (replisome) localization; format: cell-based, Caulobacter crescentus; conditions: 1 hr treatment
Experimental: To assess the ability of these cells to assemble a replisome at the replication origins, A22 was administered to cells expressing a fusion of GFP to the HoIB subunit of DNA polymerase.

MreB = target: T3, MreB (Caulobacter vibrioides, UniProt A0A0H3C7V4); test: Chromatin immunoprecipitation with anti-MreB; format: cell-based, Caulobacter crescentus; conditions: in the presence of A22
T3 construct: endogenous in cells; host or cells: Caulobacter crescentus cells (formaldehyde-crosslinked extracts)
T3 sequence (A0A0H3C7V4 whole entry): as the sequence (A0A0H3C7V4 whole entry) above
From the text: MreB Associates with Origin-Proximal Loci. The specific inhibition of origin movement by A22 raises the possibility that the duplicated origin moves to the opposite pole through a specific physical association with MreB, much as eukaryotic centromeres are segregated by association with microtubules. We sought to detect such an association in vivo by chromatin immunoprecipitation (ChIP). Following previously established protocols, Caulobacter extracts were ChIP'ed with polyclonal antisera raised against purified Caulobacter MreB. PCR was then used to amplify specific segments of the Caulobacter chromosome. […] We detected a faint signal with primers to the dnaA promoter located 6 kb to the right of the origin (FIG. 8), possibly reflecting the fact that dnaA is at the edge of the MreB binding region.
Chromatin Immunoprecipitations. Formaldehyde-crosslinked chromatin immunoprecipitation was performed as described previously. The anti-MreB antibody was raised by cloning the mreB coding sequence into the pET28a vector (Novagen). The resulting His6-tagged MreB was overexpressed in BL21(DE3)/pLysS E. coli and purified using Qiagen Ni2+-NTA agarose as described previously. Two milligrams of purified His6-MreB was used to immunize two rabbits (Josman Laboratories, Napa, Calif.). Oligonucleotide primer sequences for the regions PCR amplified are available upon request.

Caulobacter = test: Colony formation assay; format: cell-based, Caulobacter crescentus
From the text: To assess the impact of A22 on cell division and survival, we examined the effect of A22 on colony formation.

SMILES: N=C(N)SCc1ccc(Cl)c(Cl)c1 [Compound 1, S-(3,4-dichlorobenzyl)isothiourea]
- Cell shape of parent strain JST975 (E. coli JA221, JST975): formed spherical cells
- Cell shape of resistant mutant JA221 (E. coli JA221, JST975): grew as rods
- GFP-MreB localization (puncta and bands) (GFP-MreB [1]; 1 μg/ml or less): largely maintained
- Onset of GFP-MreB delocalization (GFP-MreB [1]; 10 μg/ml): ≤ 1 min
- GFP-MreB localization (GFP-MreB [1]; 10 or 100 μg/ml): completely disrupted this GFP-MreB localization
- Full recovery of MreB localization after diluting A22 (GFP-MreB [1]; cells treated 1 hr, mounted on pads lacking A22): ≤ 1 min
- Localization of mutated (T158A) GFP-MreB (GFP-MreB [2]): completely unaffected
- Induction of spherical cells in S. typhimurium (S. typhimurium): induced spherical cells
- Induction of spherical cells in P. putida (P. putida): induced spherical cells
- Induction of spherical cells in B. subtilis (B. subtilis): did not
- HoIB-GFP localization (HoIB-GFP): no effect on HoIB-GFP localization
- Origin coimmunoprecipitation with MreB (MreB): significantly reduced, though not abolished
- Colony formation (CFU) (Caulobacter; 0.1 μg/ml): un-perturbed
- Colony formation (CFU) (Caulobacter; 1 μg/ml): partially slowed colony formation
- Colony formation (CFU) (Caulobacter; 10 μg/ml and higher): completely halted the increase in CFU
